The results in this text go back to patent US20260224708A1, “CONJUGATE COMPOUNDS AND COMPOSITIONS” (REZUBIO PHARMACEUTICALS CO., LTD, priority 2023, published 2026).

A short description of data set [1]: Pharmacokinetics in mice, IV and PO. It counts as in vivo. The conditions noted are these: mouse, plasma, male ICR (CD-1) mice. As for the experimental part: Male ICR (CD-1) mice at around 4-6 weeks with body weight of around 25 grams (n=3) were purchased from VT-River (Zhejiang, China). After 1-week acclimation, animals were dosed with exemplary compounds intravenously at 1 mpk or orally at 10 mpk (0.5% methylcellulose in PBS as vehicle for both routes of administration). Blood samples (30 μL) were collected via saphenous vein puncture at 5 (IV only), 15, 30, 60, 120, 240, 480, and 1440 min post dose. The blood samples were saved in 0.5 M K2EDTA coated tubes and centrifuged at 4,600 rpm at 4° C. for 5 min. Plasma samples were collected and stored in −80° C. till PK analysis.
Take 10 μL of K2EDTA-treated plasma samples of CD-1 mice, add 200 μL of precipitation solution with internal standard (5 ng/mL Terfenadine in MeOH/ACN), mix well by vortexing for 1 min at room temperature followed by centrifuge at 4° C. and 4000 rpm for 15 min. Save the supernatant as injection for LC-MS/MS quantification of exemplary compounds in plasma samples of mice.
Establish a standard curve before and after each analytical batch, accompanied by quality controls of low, medium, and high concentrations. The number of quality control samples is not less than 6 and should be equal to or more than the number of samples of each batch, and interspersed in sample measurement. Standard curve and quality control samples of each batch must meet the acceptance criteria.

A further data set has as its target T1, GPR40 (Homo sapiens, UniProt O14842).
T1 construct: expressed in transfected cells
Kind of data set: IP1 accumulation assay in HEK293 cells stably expressing GPR40. It counts as cell-based. How it is done: IP1 accumulation assay was used to evaluate the potency of compounds. HEK293 cells stably expressing GPR40 were cultured in 5% CO2 incubator (ThermoFisher) in maintenance media (Dulbecco's modified Eagle's medium with 4.5 g/L of glucose, 10% fetal bovine serum, 100 μg/mL Hygromycin, and Penicillin (100 U/mL)/Streptomycin (100 μg/mL)) till 100% confluency. Cells were harvested freshly, spun down at 300×g for 5 min, and resuspended in pre-warmed 1×stimulant buffer from Cisbio IP-One HTRF Detection kit (Cisbio). Cell density was adjusted to 2.0×10^6 cells/mL. DMSO was used as blank control and AMG-1638 (CAS #: 1142214-62-7) as positive control. Compounds were prepared at 10 mM in DMSO and 5 nL of 3×serially diluted compounds (10 concentrations) were added to each well of the 384-LDV assay plate (Corning) by using ECHO 550 (Labcyte). Five μL of cells in suspension were transferred into each well by using Multidrop Combi Reagent Dispenser (ThermoFisher). Assay plate was then sealed and incubated at 37° C. for 2 hours. IP-d2 reagent and anti-IP1 reagent were prepared following the manual (Cisbio). Five μL of IP1-d2 and then 5 μL of anti-IP1 antibody was added to each well sequentially. Assay plate was incubated at room temperature for 60 min and then read at 665 nm/615 nm on an Envision plate reader (PerkinElmer). […] Dose curve was fitted and EC50 of each compound was calculated by using XLFit.

Where a name gives a salt, the structure may show the parent alone.

T1 sequence (O14842 whole entry): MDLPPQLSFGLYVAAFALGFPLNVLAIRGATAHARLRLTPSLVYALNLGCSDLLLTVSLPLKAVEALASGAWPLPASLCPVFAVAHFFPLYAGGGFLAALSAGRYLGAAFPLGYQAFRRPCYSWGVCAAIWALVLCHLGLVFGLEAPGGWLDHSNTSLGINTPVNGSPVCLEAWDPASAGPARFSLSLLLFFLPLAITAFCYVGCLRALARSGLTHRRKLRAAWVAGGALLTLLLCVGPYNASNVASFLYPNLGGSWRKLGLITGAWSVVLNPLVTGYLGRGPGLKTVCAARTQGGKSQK

`COc1ccc(C(=O)N(CC(C)(C)CCCCCCCCCCCCCCCCCCCC(=O)NCC[N+](C)(CC(=O)NCCN)CC(=O)NCCN)c2cccc(C)n2)c(N2CCC(COc3cc([C@@H](CC(=O)O)C4CC4)ccn3)CC2)c1` [Example 4] registered a clearance in data set [1] (1 mg/kg, IV 1 mpk) of 0.22 mL/min/kg.

For `COc1ccc(C(=O)N(CC(C)(C)CCCCCCCCCCCCCCCCCC(=O)NCCC[N+](C)(CC(=O)NCCN)CC(=O)NCCN)c2cccc(C)n2)c(N2CCC(COc3cc([C@@H](CC(=O)O)C4CC4)ccn3)CC2)c1` [Example 12], the clearance in data set [1] (1 mg/kg, IV 1 mpk) came to 0.15 mL/min/kg.

For the compound `COc1ccc(C(=O)N(CC(C)(C)CCCCCCCCCCCCCCCCCCCC(=O)NCCCN(CC(=O)O)CC(=O)O)c2cccc(C)n2)c(N2CCC(COc3cc([C@@H](CC(=O)O)C4CC4)ccn3)CC2)c1` [Example 13], in data set [1] (1 mg/kg, IV 1 mpk), the clearance was determined as 0.14 mL/min/kg.

Compound `COc1ccc(C(=O)N(CC(C)(C)CCCCCCCCCCCCCCCCCCCC(=O)NCCC[N+](C)(CC(=O)[O-])CC(=O)O)c2cccc(C)n2)c(N2CCC(COc3cc([C@@H](CC(=O)O)C4CC4)ccn3)CC2)c1` (stereo partly drawn) [Example 14] came in with a clearance in data set [1] (1 mg/kg, IV 1 mpk) of 0.2 mL/min/kg.

For orientation: AUC means concentration integrated over time. High values mean more exposure, low ones less exposure. As usually defined, the half-life is how long it takes for the measured level to halve. The low end stands for fast loss, the high end for slow loss. One may read the Cmax as the peak of the concentration-time curve. By Tmax is commonly meant the time at which the peak concentration occurs. The term bioavailability denotes dose-corrected exposure relative to a reference, in per cent. As a reminder, the EC50 is the concentration needed to bring the measured effect to its halfway point. A low value points to a more potent agent. In data set [1] (1 mg/kg, IV 1 mpk), `COc1ccc(C(=O)N(CC(C)(C)CCCCCCCCCCCCCCCCCC(=O)NCC[N+](C)(CCCC(=O)NCCN)CCCC(=O)NCCN)c2cccc(C)n2)c(N2CCC(COc3cc([C@@H](CC(=O)O)C4CC4)ccn3)CC2)c1` [Example 17] gave an area under the curve (AUC) of 104 µM·h, a clearance of 0.1 mL/min/kg and a half-life of 10.5 h. Besides, in data set [1] (10 mg/kg, PO 10 mpk), the Cmax stood at 238 nM and the time to peak (Tmax) worked out at 6.7 h. This compound also gave a bioavailability in data set [1] (10 mg/kg, PO 10 mpk, oral bioavailability) of 0.41%. The compound also returned an EC50 on GPR40 of 110 pM.

`COc1ccc(C(=O)N(CC(C)(C)CCCCCCCCCCCCCCCCCC(=O)NCCC[N+]23CCN(CC2)CC3)c2cccc(C)n2)c(N2CCC(COc3cc([C@@H](CC(=O)O)C4CC4)ccn3)CC2)c1` [Example 18, (S)-1-(3-(20-(2-(4-(((4-(2-carboxy-1-cyclopropylethyl)pyridin-2-yl)oxy)methyl)piperidin-1-yl)-4-methoxy-N-(6-methylpyridin-2-yl)benzamido)-19,19-dimethylicosanamido)propyl)-1,4-diazabicyclo[2.2.2]octan-1-ium TFA salt] yielded a clearance in data set [1] (1 mg/kg, IV 1 mpk) of 0.32 mL/min/kg.

Compound `COc1ccc(C(=O)N(CC(C)(C)CCCCCCCCCCCCCCCCCC(=O)NCCC[N+]23CC[N+](C)(CC2)CC3)c2cccc(C)n2)c(N2CCC(COc3cc([C@@H](CC(=O)O)C4CC4)ccn3)CC2)c1` [Example 19] yielded a clearance in data set [1] (1 mg/kg, IV 1 mpk) of 0.43 mL/min/kg.

With `COc1ccc(C(=O)N(CC(C)(C)CCCCCCCCCCCCCCCCCCCCCC[N+]23CCN(CC2)CC3)c2cccc(C)n2)c(N2CCC(COc3cc([C@@H](CC(=O)O)C4CC4)ccn3)CC2)c1` [Example 21, (S)-1-(24-(2-(4-(((4-(2-carboxy-1-cyclopropylethyl)pyridin-2-yl)oxy)methyl)piperidin-1-yl)-4-methoxy-N-(6-methylpyridin-2-yl)benzamido)-23,23-dimethyltetracosyl)-1,4-diazabicyclo[2.2.2]octan-1-ium], the clearance in data set [1] (1 mg/kg, IV 1 mpk) is 0.67 mL/min/kg.

Take `COc1ccc(C(=O)N(CC(C)(C)CCn2cc(CCCCCCCCCCCCCCCCCC(=O)NCCC[N+]34CCN(CC3)CC4)nn2)c2cccc(C)n2)c(N2CCC(COc3cc([C@@H](CC(=O)O)C4CC4)ccn3)CC2)c1` [Example 34]: the EC50 at GPR40 amounted to 320 pM.
